# Results taken from US6534655B1, “Indeno[1,2-C]pyrazole derivatives for inhibiting tyrosine kinase activity” (BASF Aktiengesellschaft, priority 1997, dated 2003).
# Legend:
# KDR tyrosine kinase = biological target: T1, KDR tyrosine kinase (Homo sapiens, UniProt P35968); assay: KDR in vitro ELISA (tyrosine kinase activity); format: biochemical; conditions: ATP 5 μM, 5% DMSO, poly(Glu,Tyr) 4:1 substrate
# T1 construct: poly-His6 (N); made in house; host or cells: SF-9 insect cells (recombinant baculovirus, pVL1393)
# Description: The coding sequence for the KDR intra-cellular domain (aa789-1354) was generated through PCR using cDNAs isolated from HUVEC cells. A poly-His6 sequence was introduced at the N-terminus of this protein as well. This fragment was cloned into transfection vector pVL1393 at the Xba 1 and Not 1 site. Recombinant baculovirus (BV) was generated through co-transfection using the BaculoGold Transfection reagent (PharMingen). Recombinant BV was plaque purified and verified through Western analysis. For protein production, SF-9 cells were grown in SF-900-II medium at 2×10^6/ml, and were infected at 0.5 plaque forming units per cell (MOI). Cells were harvested at 48 hours post infection.
# SF-9 cells expressing (His)6KDR(aa789-1354) were lysed by adding 50 ml of Triton X-100 lysis buffer (20 mM Tris, pH 8.0, 137 mM NaCl, 10% glycerol, 1% Triton X-100, 1 mM PMSF, 10 μg/ml aprotinin, 1 μg/ml leupeptin) to the cell pellet from 1 L of cell culture. The lysate was centrifuged at 19,000 rpm in a Sorval SS-34 rotor for 30 min at 4° C. The cell lysate was applied to a 5 ml NiCl2 chelating sepharose column, equilibrated with 50 mM HEPES, pH7.5, 0.3 M NaCl. KDR was eluted using the same buffer containing 0.25 M imidazole. Column fractions were analyzed using SDS-PAGE and an ELISA assay (below) which measures kinase activity. The purified KDR was exchanged into 25 mM HEPES, pH7.5, 25 mM NaCl, 5 mM DTT buffer and stored at −80° C.
# The disclosed protocol can be adapted for determining activity with respect to a specific RTK. For example, preferred protocols for conducting the ELISA experiments for KDR is provided below. Adaptation of these protocols for determining a compound's activity for other members of the RTK family, as well as non-receptor tyrosine kinases, are well within the abilities of those in the art. […]
# Stop with 1M Phosphoric acid. Shake on plate reader.
# Read OD immediately at 450 nm
# Optimal incubation times and enzyme reaction conditions vary slightly with enzyme preparations and are determined empirically for each lot.
# KDR = biological target: T2, KDR (Homo sapiens, UniProt P35968); assay: VEGF-induced KDR phosphorylation in HUVEC measured by Western blots; format: cell-based; conditions: VEGF(165) 50 ng/ml, Western blot, read-out: cellular IC50 (VEGF-induced KDR phosphorylation)
# T2 construct: HUVEC cells (from pooled donors) were purchased from Clonetics (San Diego, Calif.) and cultured according to the manufacturer directions; host or cells: HUVEC (pooled donors, passages 3-8)
# Description: A. VEGF-Induced KDR Phosphorylation in Human Umbilical Vein Cells (HUVEC) as Measured by Western Blots.
# 1. HUVEC cells (from pooled donors) were purchased from Clonetics (San Diego, Calif.) and cultured according to the manufacturer directions. Only early passages (3-8) were used for this assay. Cells were cultured in 100 mm dishes (Falcon for tissue culture; Becton Dickinson; Plymouth, England) using complete EBM media (Clonetics).
# 2. For evaluating a compound's inhibitory activity, cells were trypsinized and seeded at 0.5-1.0×10^5 cells/well in each well of 6-well cluster plates (Costar; Cambridge, Mass.).
# 3. 3-4 days after seeding, plates were 90-100% confluent. Medium was removed from all the wells, cells were rinsed with 5-10 ml of PBS and incubated 18-24 h with 5 ml of EBM base media with no supplements added (i.e., serum starvation).
# 4. Serial dilutions of inhibitors were added in 1 ml of EBM media (25 uM, 5 uM, or 1 uM final concentration) to cells and incubated for one hour at 37° C. Human recombinant VEGF(165) (R&D Systems) was then added to all the wells in 2 ml of EBM medium at a final concentration of 50 ng/ml and incubated at 37° C. for 10 minutes. Control cells untreated or treated with VEGF only were used to assess background phosphorylation and induction by VEGF.
# 5. […]
# [1] = tested on: Human umbilical vein endothelial cells (HUVEC); assay: HUVEC mitogenesis assay (tritiated thymidine incorporation); format: cell-based; conditions: mitogenesis induced by VEGF, FGF or Complete Media (stimulus not given)
# Description: B. HUVEC Mitogenesis Assay
# Human umbilical vein endothelial cells (HUVEC) were cultured in EGM-Complete Media (endothelial growth media supplemented with 10% FBS, hydrocortisone, epidermal growth factor and bovine brain extract as per the supplier's directions). Cells, media and supplements were purchased from Clonetics (San Diego, Calif.). The HUVEC Mitogenesis Assay was used to measure inhibition of mitogenesis induced by VEGF, FGF or Complete Media. Cells were harvested by trypsinization, washed once and suspended in Complete Media (CM) at a concentration of 5,000 cells/0.15 ml. Cells were seeded into 96-well plates at 5,000 cells/well and incubated at 37° C. for 24 hours. Cells were washed once with serum-free media (SFM) and incubated under serum-free conditions for 24 hours. Non-serum starved control wells were cultured with CM during this period. Test compounds were prepared as 10 mM stock solutions in DMSO, diluted in SFM and added to wells over a concentration range (0.005-50 μM final concentration). Cells were incubated for 1 hour prior to addition of 50 ng/ml VEGF or FGF (R & D Systems, Minneapolis, Minn.). Complete media stimulated wells received the test compound and stimulus simultaneously. […] Plates were harvested onto filter mats with a Tomtec Harvester and counted with a Betaplate liquid scintillation counter (Wallac).
# T1 sequence (P35968 789-1354): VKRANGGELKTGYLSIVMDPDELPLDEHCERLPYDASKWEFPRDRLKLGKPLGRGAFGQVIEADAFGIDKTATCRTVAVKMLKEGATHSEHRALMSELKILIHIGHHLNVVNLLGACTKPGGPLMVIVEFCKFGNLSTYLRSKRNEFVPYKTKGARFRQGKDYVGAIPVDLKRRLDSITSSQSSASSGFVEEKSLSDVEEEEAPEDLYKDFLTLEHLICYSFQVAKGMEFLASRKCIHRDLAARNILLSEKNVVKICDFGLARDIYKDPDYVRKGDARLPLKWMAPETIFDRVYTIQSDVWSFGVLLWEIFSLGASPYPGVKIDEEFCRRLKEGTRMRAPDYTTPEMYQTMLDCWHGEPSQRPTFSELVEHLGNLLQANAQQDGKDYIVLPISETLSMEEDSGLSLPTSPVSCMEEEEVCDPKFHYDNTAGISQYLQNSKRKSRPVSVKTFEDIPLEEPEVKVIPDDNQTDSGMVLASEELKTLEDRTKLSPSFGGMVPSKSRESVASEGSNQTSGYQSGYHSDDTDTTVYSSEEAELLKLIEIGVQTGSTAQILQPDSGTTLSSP
# T2 sequence (P35968 20-1356): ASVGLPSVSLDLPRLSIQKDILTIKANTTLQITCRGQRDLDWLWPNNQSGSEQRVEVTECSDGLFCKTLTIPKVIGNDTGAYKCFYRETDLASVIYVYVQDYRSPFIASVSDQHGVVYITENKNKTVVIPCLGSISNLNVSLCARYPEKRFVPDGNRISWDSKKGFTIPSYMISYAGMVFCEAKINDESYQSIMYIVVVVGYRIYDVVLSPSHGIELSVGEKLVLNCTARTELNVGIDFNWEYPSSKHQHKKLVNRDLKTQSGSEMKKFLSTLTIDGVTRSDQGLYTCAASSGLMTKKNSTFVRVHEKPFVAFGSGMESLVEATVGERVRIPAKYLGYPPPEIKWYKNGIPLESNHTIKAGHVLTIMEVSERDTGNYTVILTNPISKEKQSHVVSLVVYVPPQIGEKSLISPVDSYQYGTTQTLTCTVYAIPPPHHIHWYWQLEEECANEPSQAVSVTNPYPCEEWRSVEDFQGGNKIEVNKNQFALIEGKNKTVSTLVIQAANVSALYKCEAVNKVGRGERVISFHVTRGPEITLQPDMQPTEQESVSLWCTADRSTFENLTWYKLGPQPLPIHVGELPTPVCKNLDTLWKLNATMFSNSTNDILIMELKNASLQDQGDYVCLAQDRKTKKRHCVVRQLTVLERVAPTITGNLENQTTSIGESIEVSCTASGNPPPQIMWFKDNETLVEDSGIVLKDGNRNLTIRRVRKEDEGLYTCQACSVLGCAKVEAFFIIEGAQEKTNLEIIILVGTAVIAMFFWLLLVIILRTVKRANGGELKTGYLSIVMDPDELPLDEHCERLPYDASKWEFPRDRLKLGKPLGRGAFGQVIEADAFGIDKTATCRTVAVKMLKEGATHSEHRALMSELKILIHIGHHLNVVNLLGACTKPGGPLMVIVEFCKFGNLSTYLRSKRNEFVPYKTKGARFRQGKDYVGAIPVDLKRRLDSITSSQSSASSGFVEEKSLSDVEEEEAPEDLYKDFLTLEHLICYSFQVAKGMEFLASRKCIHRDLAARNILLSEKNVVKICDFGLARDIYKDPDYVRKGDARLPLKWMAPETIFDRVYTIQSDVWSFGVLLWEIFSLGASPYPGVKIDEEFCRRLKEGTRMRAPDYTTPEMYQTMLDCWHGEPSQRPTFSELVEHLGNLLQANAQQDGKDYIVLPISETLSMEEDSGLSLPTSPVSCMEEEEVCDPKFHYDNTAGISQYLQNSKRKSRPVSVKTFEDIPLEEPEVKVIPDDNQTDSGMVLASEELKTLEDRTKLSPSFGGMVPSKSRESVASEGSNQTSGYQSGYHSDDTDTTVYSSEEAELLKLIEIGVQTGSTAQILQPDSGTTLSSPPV
Compound,IC50 (KDR tyrosine kinase) [µM],melting point [°C],further results
Cc1c2c(nn1-c1ccccc1)-c1ccccc1C2=O,> 100,,
C1=NC(n2nc(-c3ccccc3)cc2-c2ccccc2)NC1 (stereo not shown),> 100,,
"O=C1c2ccccc2-c2[nH]nc(-c3ccccc3)c21 [3-phenylindeno[1,2-c]pyrazol-4(1H)-one]",0.15,,IC50 (KDR): 3 µM; IC50 [1]: < 0.1 µM
"COc1cc(-c2n[nH]c3c2C(=O)c2ccccc2-3)cc(OC)c1OC [Example 2, 3-(3,4,5-Trimethoxyphenyl)indeno[1,2-c]pyrazol-4(1H)-one]",,268 to 272,
"O=C1c2ccccc2-c2[nH]nc(-c3ccc(Cl)cc3)c21 [Example 3, 3-(4-chlorophenyl)indeno[1,2-c]pyrazol-4(1H)-one]",,> 330,
"CN1NC(c2ccccc2)C2=C1c1ccccc1C2=O (stereo not shown) [Example 5, 1-methyl-3-phenylindeno[1,2-c]pyrazol-4(2H)-one]",,187 to 188,

# Now from value to molecule, other results behind:
IC50 (KDR tyrosine kinase) [µM],melting point [°C],Compound,further results
,197 to 199,"COc1ccc(-c2n[nH]c3c2C(O)c2ccccc2-3)cc1OC (stereo not shown) [Example 6, 3-(3,4-dimethoxyphenyl)-1,4-dihydroindeno[1,2-c]pyrazol-4-ol]",
,269 to 272,"OC1c2ccccc2-c2[nH]nc(-c3ccccc3)c21 (stereo not shown) [Example 7, 3-phenyl-1,4-dihydroindeno[1,2-c]pyrazol-4-ol]",
